# Measured values from patent publication US8987285B2, “Pharmaceutical compositions, dosage forms and new forms of the compound of formula (I), and methods of use thereof” (Portola Pharmaceuticals, Inc., priority 2010, dated 2015).
# Where “and” joins values, the source holds several entries; their conditions need not be identical. Identical values can stand only once.
# Legend:
# [1] = Super-saturation measurement (CheqSol): intrinsic and kinetic solubility; format: physicochemical; conditions: kinetic solubility divided by intrinsic solubility
# Excerpt: Anal. Chem. 2005, 77(4), 983-990; 2—Box, K J. Völgyi, G. Baka, E. Stuart, M. Takács-Novák, K. Corner, J E A. Equilibrium vs. kinetic measurements of aqueous solubility, and the ability of compounds to supersaturate in solution—a validation study. J. Pharm. Sci. 2006, 95, 1298-1307; 3—Sköld, C. Winiwarter, S. Johan Wernevik, J. Bergström, F. Engström, L. Allen, R. Box, K. Corner, J. Mole, J. Hallberg, A. Lennernäs, H. Lundstedt, T. Ungell, A-L. Karlén, A. Presentation of a Structurally Diverse and Commercially Available Drug Data Set for Correlation and Benchmarking Studies. J. Med. Chem. 2006, 49(23), 6660-6671;
# . Med. Chem.; 2007, 50 (5), 979-983; 5—Llinás, A. Box, K J. Burley, J C. Glen, R C. Goodman, J M. J. A new method for the reproducible generation of polymorphs: two forms of Sulindac with very different solubilities. […] 6—Box K et al, Using Measured pKa, Log P and Solubility to Investigate Supersaturation and Predict BCS Class, Current Drug Metabolism, 2008, 9, 869-878]
# 1—kinetic solubility is the concentration of a compound in solution at the time when an induced precipitate first appears
# 2—equilibrium solubility (also called thermodynamic solubility) is the concentration of compound in a saturated solution when excess solid is present, and solution and solid are at equilibrium
# 3—intrinsic solubility [Hörter, D.; Dressman, J. B. Adv. Drug Deliv. Rev., 1997, 25, 3-14] is the equilibrium solubility of the free acid or base form of an ionisable compound at a pH where it is fully un-ionized
# The super-saturation ratio is calculated as the ratio of kinetic solubility divided by the Intrinsic Solubility.
# [2] = Saturation solubility, shake-flask with UV quantification; format: physicochemical; conditions: listed as The compound of formula (I)
# Method: The FaSSIF and FeSSIF solutions were prepared using Phares SIF powder according to the formulation instructions and the SGF solution was prepared using the guidelines provided. […] The pH and temperature of the supernatant were measured on a SiriusT3 instrument.
# [3] = Comparison of pharmacokinetic effects (AUC, bioavailability) in human studies for polymorphic form B, A and D; format: in vivo; conditions: polymorphs of the potassium salt
# Method: Comparison of pharmacokinetic effects in human studies for polymorphic form B, A and D of the potassium salt of elinogrel.
# Therefore the polymorphic form does have a strong impact on the bioavailability of the drug.
# The bioavailability is measured in a human study according to FDA guidelines for conducting bioavailability studies. The area under the curve (AUC) of elinogrel potassium salt polymorph.
# [4] = Wettability: contact angle measurement with water on pressed powder; format: physicochemical; conditions: for surface hydrophobilicity from contact angle: critical angle around 50° (>50° hydrophob <50° hydrophil); for Contact angle: water, in ° (unit assumed)
# Method: Contact angel instrument: EasyDrop DSA15E (Krüss, Hamburg, Germany)
# Syringe: NE44, diameter of needle 0.5 mm (Krüss, Hamburg, Germany)
# The powder was pressed (approx 50 mg powder, 3 tons, 2 min) in tablets and analyzed by contact angle measurement. The angel between the solid and the liquid is measured after 0 and up to 60 seconds using water.
# All determinations used the above method and the limit for the standards measurements are well within the given limits.
# [5] = Relative thermodynamic stability: cross-seeding, suspensions equilibrated, solid analysed by X-ray powder diffraction; format: physicochemical
# Method: The relative thermodynamic stability of the anhydrous form poly-D in comparison with the known Forms A and B of the compound of formula (I) was assessed by cross-seeding experiments, where mixtures of the anhydrous form poly-D and Form A and mixtures of the anhydrous form poly-D and Form B were separately suspended in water, an organic solvent or mixtures of water and organic solvents. The suspension was then equilibrated at various temperatures for several days. The solid parts were then isolated by filtration and analysed by X-ray powder diffraction.
# [6] = Pharmacokinetic Study 1: FMI tablets fasted/fed versus reference IR capsule, crossover, healthy adult volunteers; format: in vivo, human; conditions: high fat meal versus fasted, FMI tablets
# Method: This was an open label, randomized, four-period, incomplete crossover, single center study in healthy adult volunteers. There were 4 treatments in the study: 3 doses of the FMI (given fasting or fed following a high-fat breakfast) and one reference IR capsule (given fed after a typical breakfast). The term “FMI” refers to the dosage form of Example 7 (30 mg FMI) or Example 8 (75 mg FMI).
# Each subject was randomized to 1 of 18 treatment sequences, each with 4 treatment periods (Table 27). The first treatment period consisted of 1 of the 3 doses of FMI given fed, and treatment periods 2 to 4 consisted of 1 dose of IR capsule (fed) and 2 of the 3 doses of the FMI given fasted. […] Each subject therefore had 2 fasting treatments with the FMI formulation, 1 fed treatment with the FMI formulation and a reference treatment (IR capsule). Seventy two subjects enrolled and were dosed in the study with 70 completers.
# The study consisted of a 28-day screening period, four baseline periods (one before each treatment period), four treatment periods with a wash out period of a minimum of 5 days, followed by a study completion evaluation approximately 72 hours after the last drug administration. Subjects who met the eligibility criteria at screening were admitted to baseline evaluations. All baseline safety evaluation results were available prior to dosing.
# For fasted administration, elinogrel was administered in the morning, following an overnight fast of at least 10 hours. Subjects continued to fast until 4 hours post-dose. For fed administration of FMI tablets, elinogrel was administered in the morning, within 30 minutes of a high fat breakfast (approximately 1000 calories). Subjects continued to fast until 4 hours post-dose. For fed administration of the reference (IR capsule), it was administered in the morning, within 30 minutes of a typical breakfast (approximately 500 calories). Subjects continued to fast until 4 hours post-dose.
# Subjects were admitted to the study site approximately 12 hours prior to dosing in each period for baseline evaluations. Following a single dose of elinogrel, PK assessments were taken up to 48 hours post dose and safety assessments were made for up to 72 hours.
# Subjects were domiciled for 24 hours post dosing for PK sample collection, at which time they were discharged from the study site. Subjects returned on the following 2 mornings for 48 hour PK and 72 hour safety samples. Following the 72 hour safety assessments of treatment period 4 (or in the case of subject discontinuation) subjects underwent study completion evaluations and were discharged from the study. […].
# This was a three-period, four-treatment crossover study design with an add-on food effect period (Period 1).
# Treatment 1 (T1)=elinogrel 30 mg FMI dose fasting
# Treatment 2 (T2)=elinogrel 75 mg FMI dose fasting
# Treatment 3 (T3)=elinogrel 150 mg FMI dose fasting
# Reference (R)=elinogrel 150 mg IR capsule dose fed (typical breakfast); Example 6 (Reference)
# Fed treatment 1 (F1)=elinogrel 30 mg FMI dose fed (high fat breakfast)
# Fed treatment 2 (F2)=elinogrel 75 mg FMI dose fed (high fat breakfast)
# Fed treatment 3 (F3)=elinogrel 150 mg FMI dose fed (high fat breakfast)
# Subjects will received the following treatments in a randomized order: • Treatment (T1, F1) with IR (IR=immediate release) tablet of Example 7 containing pH-modifying alkalizing agent, 30 mg in fasted and fed state. • Treatment (T2, F2) with IR (IR=immediate release) tablet of Example 8 containing pH-modifying alkalizing agent, 75 mg in fasted and fed state • Treatment (R) with 2×IR (IR=immediate release) capsule of Example 6 (Reference): 2×75 mg (150 mg) in fed state. • Treatment (T3, F3) with 2×IR (IR=immediate release) tablet of Example 8 containing pH-modifying alkalizing agent, 2×75 mg (150 mg) in fasted and fed state.
# To evaluate the food effect, the geometric mean ratio for PK parameters of the fed versus fasted for each dose level and its 90% CI was estimated as shown in Table 29 below.
smiles,measurement,setting,value
CNc1cc2[nH]c(=O)n(-c3ccc(NC(=O)[N-]S(=O)(=O)c4ccc(Cl)s4)cc3)c(=O)c2cc1F.[K+] [Form B],ratio super saturation,[1]; listed as K-salt-Form B,363
same,ratio super saturation,[1]; listed as polymorph B of the compound of formula (I),363
same,Saturation solubility,"[2]; FaSSIF pH 6.5-1w, mean N = 2, form B",132.50 µg/mL
same,final pH measured of the supernatant,"[2]; FaSSIF pH 6.5-1w, form B",6.97
same,Saturation solubility,"[2]; FeSSIF pH 5.0-1w, mean N = 2, form B",2.49 µg/mL
same,final pH measured of the supernatant,"[2]; FeSSIF pH 5.0-1w, form B",5.16
same,Saturation solubility,"[2]; Na Phosphate pH 6.8, mean N = 2, form B",25.95 µg/mL
same,final pH measured of the supernatant,"[2]; Na Phosphate pH 6.8, form B",7.02
same,Saturation solubility,"[2]; Na-Acetate pH 4.5, mean N = 2, form B",0.40 µg/mL
same,final pH measured of the supernatant,"[2]; Na-Acetate pH 4.5, form B",4.81
same,Saturation solubility,"[2]; SGF pH 2.1, mean N = 2, form B",19.14 µg/mL
same,final pH measured of the supernatant,"[2]; SGF pH 2.1, form B",5.05
same,AUC,"[3]; human, plasma, oral, 150 mg",27600 ng·h/mL
same,surface hydrophobilicity from contact angle,[4]; listed as polymorph B,hydrophob
same,Contact angle,"[4]; 0 sec, listed as B",79.7 and 72.4
same,Contact angle,"[4]; 30 sec, listed as B",55.2 and 54.6
same,Contact angle,"[4]; 60 sec, listed as B",52.8 and 53.5
CNc1cc2[nH]c(=O)n(-c3ccc(NC(=O)[N-]S(=O)(=O)c4ccc(Cl)s4)cc3)c(=O)c2cc1F.[K+] [Form poly-D],solid form after equilibration (XRPD),"[5]; MeOH, 25° C./4 days",No change
same,solid form after equilibration (XRPD),"[5]; MeOH, 50° C./3 days",No change
same,solid form after equilibration (XRPD),"[5]; MeOH/water 1:1 v/v, 25° C./4 days",No change
same,solid form after equilibration (XRPD),"[5]; MeOH/water 1:1 v/v, 50° C./3 days",No change
same,solid form after equilibration (XRPD),"[5]; MeOH/water 1:2 v/v, 25° C./4 days",No change
same,solid form after equilibration (XRPD),"[5]; MeOH/water 1:2 v/v, 50° C./3 days",No change
same,solid form after equilibration (XRPD),"[5]; MeOH/water 2:1 v/v, 25° C./4 days",No change
same,solid form after equilibration (XRPD),"[5]; MeOH/water 2:1 v/v, 50° C./3 days",No change
same,solid form after equilibration (XRPD),"[5]; water, 25° C./4 days",No change
same,solid form after equilibration (XRPD),"[5]; water, 50° C./3 days",No change
same,Saturation solubility,"[2]; FaSSIF pH 6.5-1w, mean N = 2, form poly-D, potassium salt",166.50 µg/mL
same,final pH measured of the supernatant,"[2]; FaSSIF pH 6.5-1w, form poly-D, potassium salt",7.00
same,Saturation solubility,"[2]; FeSSIF pH 5.0-1w, mean N = 2, form poly-D, potassium salt",6.94 µg/mL
same,final pH measured of the supernatant,"[2]; FeSSIF pH 5.0-1w, form poly-D, potassium salt",5.17
same,Saturation solubility,"[2]; Na Phosphate pH 6.8, mean N = 2, form poly-D, potassium salt",94.55 µg/mL
same,final pH measured of the supernatant,"[2]; Na Phosphate pH 6.8, form poly-D, potassium salt",7.08
same,Saturation solubility,"[2]; Na-Acetate pH 4.5, mean N = 2, form poly-D, potassium salt",0.86 µg/mL
same,final pH measured of the supernatant,"[2]; Na-Acetate pH 4.5, form poly-D, potassium salt",4.82
same,Saturation solubility,"[2]; SGF pH 2.1, mean N = 2, form poly-D, potassium salt",46.10 µg/mL
same,final pH measured of the supernatant,"[2]; SGF pH 2.1, form poly-D, potassium salt",6.34
same,AUC (bioavailability),"[3]; 150 mg dose, listed as polymorph D, potassium salt",35227 ng·h/mL
same,food effect,[6],significant negative food effect
same,surface hydrophobilicity from contact angle,"[4]; listed as polymorph poly-D, potassium salt",hydrophilic
same,Contact angle,"[4]; 0 sec, potassium salt",55.7 and 78.1 and 53.3
same,Contact angle,"[4]; 10 sec, potassium salt",27.7 and 33.4 and 28.2
same,Contact angle,"[4]; 20 sec, potassium salt",16.1 and 21.7 and 22.9
same,Contact angle,"[4]; 30 sec, potassium salt",20.6
same,Contact angle,"[4]; 60 sec, potassium salt",15.2
